Source: patent publication US20060241163A1, “Optically active (S)-hydantoin derivative” (priority 2005, published 2006)

Tests used:
[1] = system: rat in which renal insufficiency was induced by adenine; test: Suppression of creatinine increase in adenine-induced renal insufficiency model rats; type: in vivo, Wistar-strain male rats
Excerpt: Adenine was orally administered to Wistar-strain male rats of eight weeks age to prepare a renal insufficiency model. […] Further, a value of creatinine clearance (mL/kg/hr) decreased from 315.3±13.8 to 25.7±4.4 whereupon renal functions lowered to about one-tenth.
From the 7th to the 17th days from administration of adenine, the test drug was orally administered to the rat in which renal insufficiency was induced by adenine. The creatinine levels in blood before and after the administration of the test drug were compared whereupon a suppressive action of the test drug to an increase of creatinine accompanied by the progress of renal insufficiency was checked. In a control group where no test drug was administered, an increase of creatinine to an extent of 4.37±0.76 mg/dL was noted while, in a group to which (S)-(−)-5-hydroxy-1-methylhydantoin (200 mg/kg/day) was administered, an increase of creatinine was suppressed to an extent of 2.72±0.55 mg/dL.

[2] = Pharmacokinetics in blood (unchanged compound and metabolites in plasma) in renal insufficiency model rats; type: in vivo; conditions: 100 mg/kg oral once, 23rd day from administration of adenine; compared with R-form and racemate; FIG. 1 and FIG. 2
Description: After each 100 mg/kg of (S)-(−)-5-hydroxy-1-methylhydantoin, (R)-(+)-5-hydroxy-1-methylhydantoin, and racemate thereof was orally administered once to the above-mentioned model rats of renal insufficiency (on the 23rd day from administration of adenine), changes in concentration of an unchanged compound and metabolites (metabolite 1: 1-methylimidazolidintrion and metabolite 2: 5-methyloxaluric acid) in plasma were checked.

mice = test: Minimum doses for expression of general symptoms after single oral administration; type: in vivo
SD-strain rats = test: Acute toxicity test, single intravenous administration; type: in vivo; conditions: once administered intravenously, SD-strain rats 6 weeks age
Description: In an acute toxicity test where (±)-5-hydroxy-1-methylhydantoin was once administered intravenously to SD-strain rats (6 weeks age), there was no dead case even when the dose was 2,000 mg/kg, and so the lethal dose of the unchanged compound was presumed to be not less than 2,000 mg/kg. In the same toxicity test however, a lethal dose of the metabolite 1 was about 150 to 300 mg/kg. […] Furthermore, it was observed that the racemate caused the decrease of general symptoms such as passivity, tactile reaction, pain sensation reaction and ipsilateral flexor reaction at a dose of 200 mg/kg.

CN1C(=O)NC(=O)[C@@H]1O [S-form, (S)-(−)-5-hydroxy-1-methylhydantoin]
increase of creatinine in blood ([1]; 200 mg/kg/day oral, 7th to 17th days from administration of adenine, control group 4.37±0.76 mg/dL): 2.72 ± 0.55 mg/dL | suppressive action to renal insufficiency ([1]; adenine renal insufficiency rats, oral, compared with racemate): suppressive action to renal insufficiency the same as the racemate | conversion to metabolites (metabolite 1 and metabolite 2) in plasma [2]: rarely converted to its metabolites | dose causing decrease of general symptoms (passivity, tactile reaction, pain sensation reaction, ipsilateral flexor reaction) (mice; mouse, in vivo, po): 500 mg/kg

CN1C(=O)NC(=O)C1O (racemic) [racemate, (±)-5-hydroxy-1-methylhydantoin, reference compound]
lethal dose (SD-strain rats): not less than 2,000 mg/kg | dose causing decrease of general symptoms (passivity, tactile reaction, pain sensation reaction, ipsilateral flexor reaction) (mice; general symptoms observation, single oral administration to mice): 200 mg/kg

CN1C(=O)NC(=O)C1=O [metabolite 1, 1-methylimidazolidintrion]
lethal dose (SD-strain rats): 150 to 300 mg/kg

CN1C(=O)NC(=O)[C@H]1O [R-form, (R)-(+)-5-hydroxy-1-methylhydantoin]
dose for expression of general symptoms as compared with the S-form (mice; mouse, in vivo, po): one-fifth
